#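 Compound exposure: 48 hours, 5 concentrations, 96-well plates. GI50 = concentration required for 50% inhibition of growth.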 Active and inactive are the calls of the source. Cut-off read from the data, not from the text of the source: active = GI50 up to about 1.1 µM and inactive = higher.
# Tests used:
# Experiment in all cases: NCI tumour cell line growth inhibition, 48 h
# MDA-MB-231 = system: MDA-MB-231
# NCI-H23 = system: NCI-H23
# U-251 = system: U-251
# CCRF-CEM = system: CCRF-CEM
# Malme-3M = system: Malme-3M
# PC-3 = system: PC-3
# A549 = system: A549
# HCT-15 = system: HCT-15
# MDA-N = system: MDA-N
# NCI/ADR-RES = system: NCI/ADR-RES
# NCI-H226 = system: NCI-H226
# A498 = system: A498
# IGROV-1 = system: IGROV-1
# SK-MEL-5 = system: SK-MEL-5
# NCI-H522 = system: NCI-H522
# SK-OV-3 = system: SK-OV-3
# OVCAR-3 = system: OVCAR-3
# HT-29 = system: HT-29
# Hs-578T = system: Hs-578T
# ACHN = system: ACHN
# OVCAR-5 = system: OVCAR-5
# SR = system: SR
# SN12C = system: SN12C
# HOP-92 = system: HOP-92
# OVCAR-4 = system: OVCAR-4
# SF-268 = system: SF-268
# TK-10 = system: TK-10
# RXF 393 = system: RXF 393
# EKVX = system: EKVX
# SK-MEL-28 = system: SK-MEL-28
# T47D = system: T47D
# MDA-MB-435 = system: MDA-MB-435
# K562 = system: K562
# SF-539 = system: SF-539
# UO-31 = system: UO-31
# HCT-116 = system: HCT-116
# COLO 205 = system: COLO 205
# SF-295 = system: SF-295
# HCC 2998 = system: HCC 2998
# LOX IMVI = system: LOX IMVI
# KM12 = system: KM12
# SNB-75 = system: SNB-75
# MOLT-4 = system: MOLT-4
# UACC-62 = system: UACC-62
# RPMI-8226 = system: RPMI-8226
# HL-60 = system: HL-60
# OVCAR-8 = system: OVCAR-8
# HOP-62 = system: HOP-62
# DU-145 = system: DU-145
# 786-0 = system: 786-0
# MCF7 = system: MCF7
# CAKI-1 = system: CAKI-1
# SW-620 = system: SW-620
# UACC-257 = system: UACC-257
# NCI-H460 = system: NCI-H460
# M14 = system: M14
# BT-549 = system: BT-549
# SNB-19 = system: SNB-19
# SK-MEL-2 = system: SK-MEL-2
structure (smiles),measurement,setting,value
COC(=O)c1ccccc1/C=C1\Cc2ccc3c(c2C1=O)CCC3,GI50,MDA-MB-231,> 100 µM (inactive)
same,GI50,NCI-H23,> 100 µM (inactive)
same,GI50,U-251,> 100 µM (inactive)
same,GI50,CCRF-CEM,> 100 µM (inactive)
same,GI50,Malme-3M,> 100 µM (inactive)
same,GI50,PC-3,> 100 µM (inactive)
same,GI50,A549,> 100 µM (inactive)
same,GI50,HCT-15,> 100 µM
same,GI50,MDA-N,> 100 µM (inactive)
same,GI50,NCI/ADR-RES,> 100 µM (inactive)
same,GI50,NCI-H226,> 100 µM (inactive)
same,GI50,A498,> 100 µM (inactive)
same,GI50,IGROV-1,> 100 µM (inactive)
same,GI50,SK-MEL-5,> 100 µM (inactive)
same,GI50,NCI-H522,> 100 µM (inactive)
same,GI50,SK-OV-3,> 100 µM (inactive)
same,GI50,OVCAR-3,> 100 µM (inactive)
same,GI50,HT-29,> 100 µM (inactive)
same,GI50,Hs-578T,> 100 µM (inactive)
same,GI50,ACHN,> 100 µM (inactive)
same,GI50,OVCAR-5,> 100 µM (inactive)
same,GI50,SR,> 100 µM (inactive)
same,GI50,SN12C,> 100 µM (inactive)
same,GI50,HOP-92,> 100 µM (inactive)
same,GI50,OVCAR-4,> 100 µM (inactive)
same,GI50,SF-268,> 100 µM (inactive)
same,GI50,TK-10,> 100 µM (inactive)
same,GI50,RXF 393,> 100 µM (inactive)
same,GI50,EKVX,> 100 µM (inactive)
same,GI50,SK-MEL-28,> 100 µM (inactive)
same,GI50,T47D,> 100 µM (inactive)
same,GI50,MDA-MB-435,> 100 µM (inactive)
same,GI50,K562,> 100 µM (inactive)
same,GI50,SF-539,> 100 µM (inactive)
same,GI50,UO-31,> 100 µM (inactive)
same,GI50,HCT-116,> 100 µM (inactive)
same,GI50,COLO 205,> 100 µM (inactive)
same,GI50,SF-295,> 100 µM (inactive)
same,GI50,HCC 2998,> 100 µM (inactive)
same,GI50,LOX IMVI,> 100 µM (inactive)
same,GI50,KM12,> 100 µM (inactive)
same,GI50,SNB-75,> 100 µM (inactive)
same,GI50,MOLT-4,> 100 µM (inactive)
same,GI50,UACC-62,> 100 µM (inactive)
same,GI50,RPMI-8226,> 100 µM (inactive)
same,GI50,HL-60,> 100 µM (inactive)
same,GI50,OVCAR-8,> 100 µM (inactive)
same,GI50,HOP-62,> 100 µM (inactive)
same,GI50,DU-145,> 100 µM (inactive)
same,GI50,786-0,> 100 µM (inactive)
same,GI50,MCF7,> 100 µM (inactive)
same,GI50,CAKI-1,> 100 µM (inactive)
same,GI50,SW-620,> 100 µM (inactive)
same,GI50,UACC-257,> 100 µM (inactive)
same,GI50,NCI-H460,> 100 µM (inactive)
NS(=O)(=O)c1nnc(NS(=O)(=O)C(F)(F)F)s1,GI50,MDA-MB-231,> 100 µM (inactive)
same,GI50,NCI-H23,77.3 µM (inactive)
same,GI50,U-251,> 100 µM (inactive)
same,GI50,Malme-3M,> 100 µM (inactive)
same,GI50,PC-3,> 100 µM (inactive)
same,GI50,M14,> 100 µM (inactive)
same,GI50,A549,> 100 µM (inactive)
same,GI50,HCT-15,> 100 µM
same,GI50,NCI/ADR-RES,> 100 µM (inactive)
same,GI50,NCI-H226,> 100 µM (inactive)
same,GI50,A498,> 100 µM (inactive)
same,GI50,NCI-H522,> 100 µM (inactive)
same,GI50,SK-OV-3,> 100 µM (inactive)
same,GI50,OVCAR-3,> 100 µM (inactive)
same,GI50,HT-29,> 100 µM (inactive)
same,GI50,ACHN,> 100 µM (inactive)
same,GI50,OVCAR-5,> 100 µM (inactive)
same,GI50,SR,46.7 µM (inactive)
same,GI50,HOP-92,> 100 µM (inactive)
same,GI50,OVCAR-4,> 100 µM (inactive)
same,GI50,SF-268,> 100 µM (inactive)
same,GI50,TK-10,> 100 µM (inactive)
same,GI50,RXF 393,> 100 µM (inactive)
same,GI50,EKVX,> 100 µM (inactive)
same,GI50,SK-MEL-28,> 100 µM (inactive)
same,GI50,MDA-MB-435,> 100 µM (inactive)
same,GI50,K562,> 100 µM (inactive)
same,GI50,SF-539,> 100 µM (inactive)
same,GI50,BT-549,> 100 µM (inactive)
same,GI50,UO-31,> 100 µM (inactive)
same,GI50,HCT-116,> 100 µM (inactive)
same,GI50,COLO 205,> 100 µM (inactive)
same,GI50,SF-295,> 100 µM (inactive)
same,GI50,HCC 2998,> 100 µM (inactive)
same,GI50,KM12,> 100 µM (inactive)
same,GI50,SNB-75,> 100 µM (inactive)
same,GI50,MOLT-4,> 100 µM (inactive)
same,GI50,UACC-62,> 100 µM (inactive)
same,GI50,RPMI-8226,> 100 µM (inactive)
same,GI50,HL-60,> 100 µM (inactive)
same,GI50,OVCAR-8,> 100 µM (inactive)
same,GI50,HOP-62,> 100 µM (inactive)
same,GI50,SNB-19,> 100 µM (inactive)
same,GI50,DU-145,> 100 µM (inactive)
same,GI50,786-0,> 100 µM (inactive)
same,GI50,MCF7,> 100 µM (inactive)
same,GI50,CAKI-1,> 100 µM (inactive)
same,GI50,SK-MEL-2,> 100 µM (inactive)
same,GI50,SW-620,> 100 µM (inactive)
same,GI50,NCI-H460,> 100 µM (inactive)
COc1ccc2c(c1)/C(=C/CCN(C)C)c1ccccc1S2,GI50,MDA-MB-231,59 µM (inactive)
same,GI50,NCI-H23,> 100 µM (inactive)
same,GI50,U-251,> 100 µM (inactive)
same,GI50,CCRF-CEM,54.6 µM (inactive)
same,GI50,PC-3,75.9 µM (inactive)
same,GI50,M14,73.8 µM (inactive)
same,GI50,A549,> 100 µM (inactive)
same,GI50,HCT-15,> 100 µM
same,GI50,MDA-N,43.3 µM (inactive)
same,GI50,NCI/ADR-RES,> 100 µM (inactive)
same,GI50,NCI-H226,> 100 µM (inactive)
same,GI50,A498,> 100 µM (inactive)
same,GI50,SK-MEL-5,16.2 µM (inactive)
same,GI50,SK-OV-3,> 100 µM (inactive)
same,GI50,OVCAR-3,> 100 µM (inactive)
same,GI50,HT-29,76.6 µM (inactive)
same,GI50,Hs-578T,33.4 µM (inactive)
same,GI50,ACHN,> 100 µM (inactive)
same,GI50,SR,69 µM (inactive)
same,GI50,SN12C,> 100 µM (inactive)
same,GI50,HOP-92,> 100 µM (inactive)
same,GI50,SF-268,92.9 µM (inactive)
same,GI50,TK-10,> 100 µM (inactive)
same,GI50,RXF 393,35.6 µM (inactive)
same,GI50,SK-MEL-28,19.4 µM (inactive)
same,GI50,T47D,> 100 µM (inactive)
same,GI50,MDA-MB-435,48 µM (inactive)
same,GI50,K562,46.1 µM (inactive)
same,GI50,UO-31,27 µM (inactive)
same,GI50,HCT-116,55.8 µM (inactive)
same,GI50,COLO 205,18.8 µM (inactive)
same,GI50,SF-295,> 100 µM (inactive)
same,GI50,HCC 2998,44.3 µM (inactive)
same,GI50,LOX IMVI,95.5 µM (inactive)
same,GI50,KM12,> 100 µM (inactive)
same,GI50,SNB-75,27.5 µM (inactive)
same,GI50,MOLT-4,67.1 µM (inactive)
same,GI50,HL-60,48.5 µM (inactive)
same,GI50,OVCAR-8,> 100 µM (inactive)
same,GI50,SNB-19,> 100 µM (inactive)
same,GI50,DU-145,> 100 µM (inactive)
same,GI50,MCF7,> 10 µM (inactive)
same,GI50,SW-620,> 100 µM (inactive)
same,GI50,UACC-257,> 100 µM (inactive)
same,GI50,NCI-H460,> 100 µM (inactive)
O=C1/C(=C/c2ccccc2O)N=C(c2ccccc2)N1c1nc2ccccc2s1,GI50,MDA-MB-231,18.3 µM (inactive)
same,GI50,NCI-H23,11.1 µM (inactive)
same,GI50,U-251,10.1 µM (inactive)
same,GI50,CCRF-CEM,25.5 µM (inactive)
same,GI50,PC-3,15.7 µM (inactive)
same,GI50,M14,17.1 µM (inactive)
same,GI50,HCT-15,6.11 µM
same,GI50,MDA-N,2.51 µM (inactive)
same,GI50,NCI/ADR-RES,14.5 µM (inactive)
same,GI50,NCI-H226,22.7 µM (inactive)
same,GI50,A498,20.4 µM (inactive)
same,GI50,IGROV-1,15.6 µM (inactive)
same,GI50,SK-MEL-5,7.57 µM (inactive)
same,GI50,NCI-H522,4.06 µM (inactive)
same,GI50,SK-OV-3,23.4 µM (inactive)
same,GI50,OVCAR-3,7.43 µM (inactive)
same,GI50,HT-29,20.9 µM (inactive)
same,GI50,Hs-578T,16 µM (inactive)
same,GI50,ACHN,23.7 µM (inactive)
same,GI50,OVCAR-5,51.4 µM (inactive)
same,GI50,SR,2.24 µM (inactive)
same,GI50,HOP-92,29.9 µM (inactive)
same,GI50,OVCAR-4,32.1 µM (inactive)
same,GI50,SF-268,20.2 µM (inactive)
same,GI50,TK-10,23.8 µM (inactive)
same,GI50,RXF 393,34.3 µM (inactive)
same,GI50,EKVX,24.5 µM (inactive)
same,GI50,SK-MEL-28,21.3 µM (inactive)
same,GI50,T47D,21.1 µM (inactive)
same,GI50,MDA-MB-435,3.1 µM (inactive)
same,GI50,K562,7.85 µM (inactive)
same,GI50,SF-539,20.7 µM (inactive)
same,GI50,UO-31,36.6 µM (inactive)
same,GI50,HCT-116,14.3 µM (inactive)
same,GI50,SF-295,14.7 µM (inactive)
same,GI50,HCC 2998,13.7 µM (inactive)
same,GI50,LOX IMVI,15.5 µM (inactive)
same,GI50,KM12,7.73 µM (inactive)
same,GI50,SNB-75,21.4 µM (inactive)
same,GI50,MOLT-4,19.5 µM (inactive)
same,GI50,RPMI-8226,19.1 µM (inactive)
same,GI50,HL-60,1.21 µM (inactive)
same,GI50,OVCAR-8,23.9 µM (inactive)
same,GI50,HOP-62,18.6 µM (inactive)
same,GI50,DU-145,27.3 µM (inactive)
same,GI50,786-0,14.5 µM (inactive)
same,GI50,MCF7,3.37 µM (inactive)
same,GI50,CAKI-1,32.7 µM (inactive)
same,GI50,SK-MEL-2,9.18 µM (inactive)
same,GI50,SW-620,11.2 µM (inactive)
same,GI50,UACC-257,19.8 µM (inactive)
same,GI50,NCI-H460,11.2 µM (inactive)

# From ChEMBL document CHEMBL1201862, “PubChem BioAssay data set” (2004)
